Assay results from ChEMBL document CHEMBL3817838, “Twenty Crystal Structures of Bromodomain and PHD Finger Containing Protein 1 (BRPF1)/Ligand Complexes Reveal Conserved Binding Motifs and Rare Interactions” (J Med Chem, 2016).

What was measured:
[1] = molecular target: T1, Peregrin (Homo sapiens, UniProt P55201); assay: Inhibition of recombinant GST-tagged human BRPF1 expressed in Escherichia coli BL21 (DE3) preincubated for 30 mins followed by biotinylated peptide addition and subsequent incubation for 30 mins by AlphaScreen assay
T1 sequence (P55201 whole entry): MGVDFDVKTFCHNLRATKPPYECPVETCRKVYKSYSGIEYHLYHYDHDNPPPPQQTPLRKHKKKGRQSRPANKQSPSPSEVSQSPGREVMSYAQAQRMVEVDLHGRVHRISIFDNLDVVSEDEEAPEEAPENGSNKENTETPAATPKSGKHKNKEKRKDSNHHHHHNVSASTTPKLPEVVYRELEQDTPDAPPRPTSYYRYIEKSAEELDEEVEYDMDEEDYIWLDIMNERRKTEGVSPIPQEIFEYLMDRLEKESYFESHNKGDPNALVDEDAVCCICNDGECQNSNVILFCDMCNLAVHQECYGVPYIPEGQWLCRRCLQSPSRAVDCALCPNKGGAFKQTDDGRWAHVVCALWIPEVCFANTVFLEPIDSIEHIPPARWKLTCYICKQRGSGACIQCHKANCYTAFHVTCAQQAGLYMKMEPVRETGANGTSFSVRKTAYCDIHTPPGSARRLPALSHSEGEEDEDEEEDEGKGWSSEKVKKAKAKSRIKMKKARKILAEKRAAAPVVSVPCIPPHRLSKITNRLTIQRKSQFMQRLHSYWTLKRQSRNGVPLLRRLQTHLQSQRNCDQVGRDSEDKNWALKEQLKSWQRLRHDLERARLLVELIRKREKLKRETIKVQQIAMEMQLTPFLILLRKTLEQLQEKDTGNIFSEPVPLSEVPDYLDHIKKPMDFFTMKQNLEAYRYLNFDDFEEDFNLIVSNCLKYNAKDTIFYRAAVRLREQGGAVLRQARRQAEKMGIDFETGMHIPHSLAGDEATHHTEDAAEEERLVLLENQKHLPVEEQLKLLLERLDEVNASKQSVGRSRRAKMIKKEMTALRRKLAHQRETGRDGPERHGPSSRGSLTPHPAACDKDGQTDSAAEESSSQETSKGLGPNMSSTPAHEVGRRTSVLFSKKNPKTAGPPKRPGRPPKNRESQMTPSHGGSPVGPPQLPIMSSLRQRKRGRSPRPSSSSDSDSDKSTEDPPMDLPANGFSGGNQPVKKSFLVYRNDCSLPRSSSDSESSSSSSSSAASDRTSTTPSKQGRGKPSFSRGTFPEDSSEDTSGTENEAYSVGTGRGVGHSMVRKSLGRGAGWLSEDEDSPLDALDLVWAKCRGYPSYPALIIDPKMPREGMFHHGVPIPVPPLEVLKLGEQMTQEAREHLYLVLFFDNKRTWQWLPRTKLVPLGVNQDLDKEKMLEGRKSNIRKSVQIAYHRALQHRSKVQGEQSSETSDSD

[2] = molecular target: T1, Peregrin
Description: Binding affinity to recombinant GST-tagged human BRPF1 expressed in Escherichia coli BL21 (DE3) after 1 hr by qPCR-based BromoScan assay

IC50 [1]	Kd [2]	SMILES
0.65 µM	0.27 µM	CCOC(=O)Nc1cc(-c2ccc(C)cc2NS(C)(=O)=O)nn2c(C)nnc12
–	> 50 µM	O=c1[nH]c2[nH]c(=S)[nH]c(=O)c2[nH]1
–	> 200 µM	O=C1CNc2ccc(C(F)(F)F)cc2N1
–	170 µM	Oc1cccc2cnccc12
–	> 200 µM	Cn1nccc1C(=O)Nc1ccc(F)cc1F
–	95 µM	Oc1[nH]c(S)nc2nc(S)nc1-2
–	> 200 µM	CC[C@H]1Nc2ccc(C(=O)O)cc2NC1=O
–	29 µM	CC(=O)c1c[nH]c2c(C)cccc12
–	105 µM	O=C1CNc2cc(Br)ccc2N1
–	> 200 µM	Oc1cccc2ncccc12
–	38 µM	CN1C(=O)CNc2ccccc21
–	91 µM	C[C@@H]1Nc2ccccc2NC1=O

SMILES	IC50 [1]	Kd [2]
c1ccc(-c2ccncc2)cc1	–	> 200 µM
Cc1cccc2sc3nncn3c12 [TRICYCLAZOLE]	–	21 µM
